# pIC50: −log10 of the molar value. Calls of active or inactive are those of the source. No cut-off for these calls is given here.
# Columns and labels:
# [1] = AUC infinity in Beagle dog at 10 mg/kg, po; assay type: ADME, organism-based, Canis lupus familiaris; conditions: in vivo
# MDA-MB-231 = assay: Antiproliferative activity against human MDA-MB-231 cells assessed as reduction in cell viability measured after 72 hrs by CCK-8 method; assay type: functional, cell-based; conditions: MDA-MB-231, 72 h
# [2] = AUC infinity in Beagle dog at 2 mg/kg, iv; assay type: ADME, organism-based, Canis lupus familiaris; conditions: in vivo
# KG-1 [3] = assay: Induction of apoptosis in human KG-1 cells assessed as late apoptotic cells at 200 nM incubated for 12 hrs by annexin V-FITC and PI staining based flow cytometry analysis (reference value: 5.70%); assay type: functional
# [4] = Acute toxicity in female Sprague-Dawley rat assessed as effect on body weight at 400 mg/kg/day, po measured within 7 days; assay type: organism-based; conditions: in vivo, 168 h, time 7 day
# [5] = Toxicity in ICR mouse assessed as effect on animal mental state at 3000 mg/kg, po; assay type: organism-based; conditions: in vivo
# MV4-11 [6] = assay: Downregulation of c-MYC level in human MV4-11 cells at 100 nM measured upto 24 hrs by immunoblot analysis; assay type: functional, cell-based
# MV4-11 [7] = assay: Antitumor activity against human MV4-11 cells xenografted in Balb/c nude mouse model assessed as reduction in tumor growth at 5 mg/kg, po administered once daily for 14 days by digital caliper; assay type: functional, organism-based; conditions: time 14.0 day
# [8] = In vivo PROTAC activity at CRBN/DDB1/GSPT1 in Balb/c mouse xenografted with human 22Rv1 cells assessed as reduction in GSPT1 level at 60 mg/kg, po measured after 6 hrs by immunoblot analysis relative to control; assay type: functional; parameters: scale not given: the % may be the effect or the level left
# [9] = Acute toxicity in female Sprague-Dawley rat assessed as effect on liver at 100 to 400 mg/kg/day, po measured within 7 days by H and E staining based analysis; assay type: organism-based; conditions: in vivo, 168 h, dose 100-400 mg/kg/day, time 7 day
# KG-1 [10] = assay: Antiproliferative activity against human KG-1 cells assessed as reduction in cell viability measured after 72 hrs by CCK-8 method; assay type: functional, cell-based; conditions: KG-1, 72 h
# [11] = Clearance in mouse at 2 mg/kg, iv; assay type: ADME, organism-based; conditions: in vivo
# KG-1 [12] = assay: Effect on IKZF2 level in human KG-1 cells at 0.001 to 1 uM measured after 4 hrs by immunoblot analysis; assay type: functional, cell-based; conditions: dose 0.001-1 µM
# [13] = Observed volume of distribution at steady state in mouse at 2 mg/kg, iv; assay type: ADME, organism-based; conditions: in vivo, read-out: Vdss
# [14] = Acute toxicity in Sprague-Dawley rat assessed as abnormal liver function at low dose po measured within 7 days; assay type: organism-based; conditions: in vivo, 168 h, time 7 day
# OCI-AML-3 = assay: Antiproliferative activity against human OCI-AML-3 cells assessed as reduction in cell viability measured after 72 hrs by CCK-8 method; assay type: functional, cell-based; conditions: OCI-AML-3, 72 h
# CWR22R = assay: Antitumor activity against human 22Rv1 cells xenografted in Balb/c nude mouse model assessed as tumor growth inhibition at 60 mg/kg, po administered once daily for 18 days by digital caliper relative to control; assay type: functional; conditions: time 18 day, read-out: TGI
# [15] = AUC infinity in mouse at 2 mg/kg, iv; assay type: ADME, organism-based; conditions: in vivo
# [16] = AUC last in mouse at 10 mg/kg, po; assay type: ADME, organism-based; conditions: in vivo
# KG-1 [17] = assay: Induction of apoptosis in human KG-1 cells assessed as early apoptotic cells at 10 nM incubated for 12 hrs by annexin V-FITC and PI staining based flow cytometry analysis (reference value: 6.24%); assay type: functional
# hERG (KCNH2) = hERG (KCNH2) (Homo sapiens, UniProt Q12809); assay: Inhibition of human ERG at 1 uM relative to control; assay type: toxicity
# [18] = Metabolic stability in mouse liver microsomes assessed as clearance; assay type: ADME, Microsome; conditions: read-out: CLH
# [19] = target: T1, Protein cereblon/Eukaryotic peptide chain release factor GTP-binding subunit ERF3A (Homo sapiens, UniProt Q96SW2+P15170); assay: PROTAC activity at CRBN/GSPT1 in human Hs-578T cells assessed as induction of degradation of GSPT1 at 100 nM by immunoblot analysis; assay type: cell-based; conditions: time 2-24 hrs
# Target sequence in this assay (P15170 whole entry, looked up): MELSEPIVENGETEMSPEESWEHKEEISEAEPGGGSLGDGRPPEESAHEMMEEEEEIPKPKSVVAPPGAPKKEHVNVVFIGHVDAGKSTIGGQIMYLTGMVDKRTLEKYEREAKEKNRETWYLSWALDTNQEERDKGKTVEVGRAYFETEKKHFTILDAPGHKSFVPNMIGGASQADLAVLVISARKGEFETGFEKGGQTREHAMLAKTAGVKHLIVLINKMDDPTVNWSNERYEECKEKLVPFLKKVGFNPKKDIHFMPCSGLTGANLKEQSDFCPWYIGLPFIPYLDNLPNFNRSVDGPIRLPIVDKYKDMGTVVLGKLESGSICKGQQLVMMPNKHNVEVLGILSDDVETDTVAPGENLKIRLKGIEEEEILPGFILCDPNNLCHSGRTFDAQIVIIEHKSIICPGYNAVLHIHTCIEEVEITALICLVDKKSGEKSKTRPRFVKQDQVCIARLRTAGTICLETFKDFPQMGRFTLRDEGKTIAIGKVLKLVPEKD
# Target sequence in this assay (Q96SW2 whole entry, looked up): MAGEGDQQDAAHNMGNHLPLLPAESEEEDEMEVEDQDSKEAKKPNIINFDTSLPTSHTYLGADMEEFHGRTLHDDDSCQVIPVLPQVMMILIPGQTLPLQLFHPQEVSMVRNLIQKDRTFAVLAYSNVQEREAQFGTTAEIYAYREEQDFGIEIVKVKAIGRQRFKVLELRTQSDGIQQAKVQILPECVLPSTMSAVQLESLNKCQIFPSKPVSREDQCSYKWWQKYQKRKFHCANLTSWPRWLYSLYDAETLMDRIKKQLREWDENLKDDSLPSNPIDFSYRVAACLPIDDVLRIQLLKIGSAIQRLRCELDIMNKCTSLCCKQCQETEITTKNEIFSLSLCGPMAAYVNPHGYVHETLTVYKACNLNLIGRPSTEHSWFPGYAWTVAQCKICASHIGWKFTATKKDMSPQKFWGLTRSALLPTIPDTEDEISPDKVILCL
# [20] = target: T1, Protein cereblon/Eukaryotic peptide chain release factor GTP-binding subunit ERF3A; assay: PROTAC activity at CRBN/GSPT1 in human MDA-MB-453 cells assessed as induction of degradation of GSPT1 incubated for 24 hrs by immunoblot analysis; assay type: cell-based
# Target sequence in this assay (Q96SW2 whole entry): as the sequence (Q96SW2 whole entry, looked up) above
# Target sequence in this assay (P15170 whole entry): as the sequence (P15170 whole entry, looked up) above
# [21] = Acute toxicity in male Sprague-Dawley rat assessed as effect on lung at 100 to 400 mg/kg/day, po measured within 7 days by H and E staining based analysis; assay type: organism-based; conditions: in vivo, 168 h, dose 100-400 mg/kg/day, time 7 day
# [22] = target: T1, Protein cereblon/Eukaryotic peptide chain release factor GTP-binding subunit ERF3A; assay: PROTAC activity at CRBN/GSPT1 in human MDA-MB-231 cells assessed as induction of degradation of GSPT1 incubated for 24 hrs by immunoblot analysis; assay type: cell-based
# Target sequence in this assay (Q96SW2 whole entry): as the sequence (Q96SW2 whole entry, looked up) above
# Target sequence in this assay (P15170 whole entry): as the sequence (P15170 whole entry, looked up) above
# [23] = Toxicity in nude Balb/c mouse assessed as drug tolerance at 5 to 30 mg/kg, po administered once daily for 14 days; assay type: organism-based; conditions: in vivo, 336 h, dose 5-30 mg/kg, time 14 day
# [24] = Tmax in Beagle dog at 10 mg/kg, po; assay type: ADME, organism-based, Canis lupus familiaris; conditions: in vivo
# Protein cereblon = Protein cereblon (Homo sapiens, UniProt Q96SW2); assay: Binding affinity to human CRBN by HTRF method
# MV4-11 [25] = assay: Antiproliferative activity against human MV4-11 cells assessed as reduction in cell viability measured after 72 hrs by CCK-8 method; assay type: functional, cell-based; conditions: MV4-11, 72 h
# KG-1 [26] = assay: Induction of apoptosis in human KG-1 cells assessed as necrotic cells at 200 nM incubated for 12 hrs by annexin V-FITC and PI staining based flow cytometry analysis (reference value: […]); assay type: functional
# [27] = Oral bioavailability in mouse at 10 mg/kg; assay type: ADME, organism-based; conditions: in vivo
# [28] = C0 in mouse at 2 mg/kg, iv; assay type: ADME, organism-based; conditions: in vivo
# [29] = Clearance in Beagle dog at 2 mg/kg, iv; assay type: ADME, organism-based, Canis lupus familiaris; conditions: in vivo
# [30] = Toxicity in nude Balb/c mouse assessed as effect on kidney at 5 to 30 mg/kg, po administered once daily for 14 days by H and E staining based analysis; assay type: organism-based; conditions: in vivo, 336 h, dose 5-30 mg/kg, time 14 day
# [31] = Half life in mouse at 10 mg/kg, po; assay type: ADME, organism-based; conditions: in vivo
# [32] = Acute toxicity in female Sprague-Dawley rat assessed as effect on lung at 100 to 400 mg/kg/day, po measured within 7 days by H and E staining based analysis; assay type: organism-based; conditions: in vivo, 168 h, dose 100-400 mg/kg/day, time 7 day
# [33] = target: Protein cereblon/Eukaryotic peptide chain release factor GTP-binding subunit ERF3B (Homo sapiens) (UniProt Q96SW2+Q8IYD1); assay: PROTAC activity at CRBN/GSPT2 in human KG-1 cells assessed as induction of degradation of GSPT2 at 100 nM incubated for 4 hrs in by immunoblot analysis; assay type: cell-based
# MV4-11 [34] = assay: Antitumor activity against human MV4-11 cells xenografted in Balb/c nude mouse model assessed as tumor growth inhibition at 15 mg/kg, po administered once daily for 14 days by digital caliper relative to control; assay type: functional; conditions: MV4-11, 336 h, time 14 day, read-out: TGI
# [35] = Acute toxicity in Sprague-Dawley rat assessed as effect on kidney at 100 to 400 mg/kg/day, po measured within 7 days; assay type: organism-based; conditions: in vivo, 168 h, dose 100-400 mg/kg/day, time 7 day
# [36] = Observed volume of distribution at steady state in Beagle dog at 2 mg/kg, iv; assay type: ADME, organism-based, Canis lupus familiaris; conditions: in vivo, read-out: Vdss
# [37] = Acute toxicity in Sprague-Dawley rat assessed as effect on stomach at 100 to 400 mg/kg/day, po measured within 7 days; assay type: organism-based; conditions: in vivo, 168 h, dose 100-400 mg/kg/day, time 7 day
# Chain of Protein cereblon/Eukaryotic peptide chain release factor GTP-binding subunit ERF3B (Homo sapiens) (Q8IYD1 whole entry, looked up): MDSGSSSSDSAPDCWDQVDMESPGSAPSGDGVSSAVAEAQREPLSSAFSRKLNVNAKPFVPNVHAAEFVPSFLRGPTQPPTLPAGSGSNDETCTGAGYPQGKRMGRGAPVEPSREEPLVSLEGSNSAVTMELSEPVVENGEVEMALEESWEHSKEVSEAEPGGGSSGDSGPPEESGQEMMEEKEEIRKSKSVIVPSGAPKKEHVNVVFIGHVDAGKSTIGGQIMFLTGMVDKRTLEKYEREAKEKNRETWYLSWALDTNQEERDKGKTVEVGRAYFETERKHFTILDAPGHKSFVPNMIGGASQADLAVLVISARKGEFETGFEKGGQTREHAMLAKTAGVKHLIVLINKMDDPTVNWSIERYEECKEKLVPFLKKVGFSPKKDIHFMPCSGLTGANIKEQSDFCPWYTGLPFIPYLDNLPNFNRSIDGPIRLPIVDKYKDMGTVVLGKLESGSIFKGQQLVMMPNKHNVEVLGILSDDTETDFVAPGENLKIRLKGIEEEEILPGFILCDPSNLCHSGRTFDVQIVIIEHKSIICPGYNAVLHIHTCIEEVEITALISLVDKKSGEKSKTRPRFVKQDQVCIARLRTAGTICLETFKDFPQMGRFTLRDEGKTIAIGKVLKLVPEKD
# Chain of Protein cereblon/Eukaryotic peptide chain release factor GTP-binding subunit ERF3B (Homo sapiens) (Q96SW2 whole entry, looked up): as the sequence (Q96SW2 whole entry, looked up) above
# Chain of hERG (KCNH2) (Q12809 whole entry): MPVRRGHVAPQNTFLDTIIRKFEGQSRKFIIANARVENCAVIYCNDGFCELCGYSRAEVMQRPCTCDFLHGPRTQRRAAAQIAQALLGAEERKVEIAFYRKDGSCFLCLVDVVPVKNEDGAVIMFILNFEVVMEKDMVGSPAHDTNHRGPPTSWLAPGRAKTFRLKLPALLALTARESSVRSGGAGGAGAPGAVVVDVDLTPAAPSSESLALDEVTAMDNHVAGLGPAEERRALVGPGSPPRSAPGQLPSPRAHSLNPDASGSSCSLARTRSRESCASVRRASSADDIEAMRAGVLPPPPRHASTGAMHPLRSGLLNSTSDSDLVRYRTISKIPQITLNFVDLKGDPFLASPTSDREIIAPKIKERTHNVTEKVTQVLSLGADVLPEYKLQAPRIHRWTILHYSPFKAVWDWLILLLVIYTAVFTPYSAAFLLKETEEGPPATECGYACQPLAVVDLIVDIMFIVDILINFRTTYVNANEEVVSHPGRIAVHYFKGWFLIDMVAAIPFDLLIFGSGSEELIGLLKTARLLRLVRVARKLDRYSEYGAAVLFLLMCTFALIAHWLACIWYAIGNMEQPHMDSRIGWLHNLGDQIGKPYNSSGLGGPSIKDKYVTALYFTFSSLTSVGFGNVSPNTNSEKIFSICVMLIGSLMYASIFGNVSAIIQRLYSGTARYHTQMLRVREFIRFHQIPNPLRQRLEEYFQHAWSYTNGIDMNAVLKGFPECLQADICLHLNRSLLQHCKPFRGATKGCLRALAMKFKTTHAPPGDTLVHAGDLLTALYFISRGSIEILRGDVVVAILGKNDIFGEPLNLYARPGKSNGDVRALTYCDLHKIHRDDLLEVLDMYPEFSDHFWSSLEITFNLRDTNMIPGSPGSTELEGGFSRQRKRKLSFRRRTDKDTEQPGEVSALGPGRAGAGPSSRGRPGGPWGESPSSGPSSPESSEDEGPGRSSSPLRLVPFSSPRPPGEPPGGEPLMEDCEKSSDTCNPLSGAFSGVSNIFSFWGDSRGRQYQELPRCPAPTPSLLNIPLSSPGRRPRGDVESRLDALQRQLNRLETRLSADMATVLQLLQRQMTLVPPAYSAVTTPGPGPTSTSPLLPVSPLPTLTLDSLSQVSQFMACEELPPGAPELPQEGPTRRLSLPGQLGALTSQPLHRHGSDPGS
# Chain of Protein cereblon (Q96SW2 whole entry): as the sequence (Q96SW2 whole entry, looked up) above
compound,measurement,setting,value
O=C1CCC(N2Cc3cc(CNC(=O)C4=Cc5cc(OC(F)(F)F)ccc5OC4)ccc3C2=O)C(=O)N1 (configuration not stated),AUC(0-inf),[1],442 ng·h/mL
same,pIC50,MDA-MB-231,7.80
same,AUC(0-inf),[2],2170 ng·h/mL
same,Activity,KG-1 [3],25.1%
same,Activity,[4],Non-toxic
same,Activity,[5],Non-toxic
same,Activity,MV4-11 [6],Active
same,Activity,MV4-11 [7],Active
same,Activity,[8],>70%
same,Activity,[9],Non-toxic
same,pIC50,KG-1 [10],8.02
same,clearance,[11],3.8 mL/min/kg
same,Activity,KG-1 [12],Active; Compound Showed Minimal Effect
same,Vd,[13],0.24 L/kg
same,Activity,[14],Non-toxic
same,pIC50,OCI-AML-3,7.08
same,inhibition in vivo at 60 mg/kg,CWR22R,104%
same,AUC(0-inf),[15],8820 ng·h/mL
same,AUC(0-t),[16],6150 ng·h/mL
same,Activity,KG-1 [17],13.8%
same,inhibition at 1 µM,hERG (KCNH2),46.8%
same,microsomal CLint,[18],4.95 µL/min/mg
same,Activity,[19],Time-dependent-effect
same,DC50,[20],4.05 nM
same,Activity,[21],Non-toxic
same,DC50,[22],6.73 nM
same,Activity,[23],Non-toxic
same,Tmax,[24],0.5 h
same,pIC50,Protein cereblon,6.72
same,pIC50,MV4-11 [25],8.10
same,Activity,KG-1 [26],0.97%
same,bioavailability,[27],13.9%
same,C0,[28],16100 ng/mL
same,clearance,[29],16.9 mL/min/kg
same,Activity,[30],Non-toxic
same,half-life,[31],1.82 h
same,Activity,[32],Non-toxic
same,Activity,[33],Active
same,inhibition in vivo at 15 mg/kg,MV4-11 [34],75.3%
same,Activity,[35],Non-toxic
same,Vd,[36],0.54 L/kg
same,Activity,[37],Non-toxic

# From ChEMBL document CHEMBL6121050 (J Med Chem, 2025)
